Ends that are not written are not given here.
Test system: carbohydrate overload model of acute laminitis in horses
Assay: Oligofructose (carbohydrate) overload model of acute laminitis, LTNF peptide study KLM-15-02
Type: in vivo
Conditions: all horses that received the intravenous peptide, 2 to 8 grams
Procedure: This communication is a brief report on the results obtained from the recent clinical study to evaluate the potential prophylactic and/or therapeutic properties of KLM's proprietary application of a 15 amino acid sequence termed LTRF in saline when employed in a carbohydrate overload model of acute laminitis in horses.
In compliance with the methods outlined in protocol KLM-15-02, nine healthy, mature horses between 4 and 9 years of age were evaluated for enrollment in the clinical study. […] Preliminary examinations were deemed normal for all candidates. Eligible candidates underwent a formal acclimation period of 10 days, during which feed, water, housing and management were identical to conditions of the actual study. On Days −3, −2, and −1, oligofructose was added to the a.m. grain ration of each candidate at a dosage of 1 gram per kg body weight.
Prior to induction on Day 0, a baseline lameness exam was repeated and captured on video. […]
At regular, 6-hr intervals after induction, the general health of each horse was assessed, a lameness exam was repeated, and rectal temperature was monitored. Once diarrhea had begun, each horse's hydration status was monitored at 2- to 4-hr intervals by assessing its packed cell volume (PCV; hematocrit) and plasma total protein concentration. […]

In the case of “LKAMDPTPPLWIKTE [LTNF peptide, Leu-Lys-Ala-Met-Asp-Pro-Thr-Pro-Pro-Leu-Trp-Ile-Lys-Thr-Glu]”, the “signs of immune reaction or toxicity” value is reported as “no signs of immune reaction or toxicity”.

Source: patent publication US20240309069A1, “COMPOSITIONS AND METHODS FOR TREATMENT OF DISEASES” (Byrock Technologies Limited, priority 2014, published 2024)
